Test results taken from patent US8729097B2, “Quinoline compounds as inhibitors of angiogenesis, human methionine aminopeptidase, and SIRT1, and methods of treating disorders” (The Johns Hopkins University, priority 2008, dated 2014).

Columns and labels:
[1] = test system: Saccharomyces cerevisiae strain BY4743; assay: Yeast growth assay (wild type, map1Δ, map2Δ); format: cell-based; conditions: drug on paper disc
Description: Saccharomyces cerevisiae strain BY4743 (MATa/α his3Δ1/his3Δ1 leu2Δ0/leu2Δ0 lys2Δ0/LYS2) and its isogenic haploid derivatives for MetAP1 (map1Δ) and MetAP2 (map2Δ) deletion mutants were used for yeast growth assays. Drugs dissolved in DMSO were spotted onto sterile filter disks and dried before experiments. Exponentially growing yeast strains were mixed with top agar and plated on YPD (1% yeast extract/2% peptone/2% glucose) plates. The filter disks were then placed on the YPD plates containing yeasts and the incubation was continued for 48 h at 30° C.

HUVEC [2] = assay: Senescence associated-β-galactosidase (SA-β-gal) staining in HUVEC; format: cell-based, human
Protocol: Cells in 6-well plates were washed with PBS and fixed with 3% paraformaldehyde. After washing with PBS, the cells were incubated for 24 h at 37° C. (without CO2, protected from light) in freshly prepared SA-β-gal staining solution containing 1 mg/ml 5-bromo-4-chloro-3-indolyl β-D-galactopyranoside (X-gal), 5 mM potassium ferrocyanide, 5 mM potassium ferricyanide, 150 mM NaCl, 2 mM MgCl2 and 40 mM citric acid, titrated with NaH2PO4 to pH 6.0. SA-β-gal solution was then removed and the cells were washed with PBS. The stained cells were observed under a microscope.

[3] = test system: breast cancer cells as well as human umbilical vein endothelial cells (HUVECs); assay: Cell proliferation assay, breast cancer cells and HUVECs; format: cell-based
Protocol: Cell proliferation assay was performed using several different kinds of breast cancer cells as well as human umbilical vein endothelial cells (HUVECs). […].
HCC1954 cells were grown in RPMI1640 containing 10% FBS. HUVEC were grown using the EGM-2 bullet kit (Cambrex) as per manufacturer's instructions. The cells were maintained in a humidified incubator adjusted to 5% CO2. For drug screening, 10 mM stock solutions of Johns Hopkins Drug Library were arrayed in 96-well plates and screened at a final concentration of 10 μM. The cell growth was determined using a [^3H]-thymidine incorporation assay. Cells (typically 5,000 cells/well) were seeded in 96-well plates containing 0.2 ml of growth media and allowed to adhere for 24 h. The cells were then treated with drugs for 24 h. Cells were pulsed with 1 μCi [^3H]-thymidine (MP Biomedicals, 6.7 Ci mmol^−1) for 8 h and harvested, upon trypsin treatment, onto glass fiber filters (Wallac, Turku, Finland), from which ^3H counts were determined using a Perkin Elmer MicroBeta plate reader.

HUVEC [4] = assay: Endothelial cell tube formation assay; format: cell-based, human; conditions: Matrigel; EX527 1 μM, TNP470 10 nM
Protocol: HUVEC were seeded on a 96-well plate (2×10^4 cells/well) coated with Matrigel. The cells were then incubated for 16˜18 h in a humidified 5% CO2 incubator at 37° C. The cells were washed carefully with PBS once and Calcein-AM solution in PBS was then added to a final concentration of 2 μM. After incubation for an additional 30 min, the cells were washed carefully with PBS and observed under a fluorescence microscope (485 nm excitation/520 nm emission). The tube formed was quantified using AngioQuant v1.33 (The MathWorks).

[5] = test system: p53 and Rb pathways in HUVECs; assay: Western blot of p53, p21 and Rb in HUVEC; format: cell-based, human
Protocol: Cells were lysed by adding 1 volume of 2× Laemmli buffer and were then boiled for 5 min. The samples were separated by SDS-PAGE and transferred to nitrocellulose membrane (Bio-Rad). Proteins were detected using primary antibodies for p53 (Santa Cruz), met-14-3-3γ (Novus), p21 (Santa Cruz), Rb (Santa Cruz), MetAP2 (Hu, X. et al (2006) Proc. Natl. Acad. Sci. U.S.A. 103, 18148-18153), SirT1 (Santa Cruz), acetyl-p53-K382 (Abeam), acetyl-tubulin (Sigma), histone-H3 (Santa Cruz), acetyl-H3 (Santa Cruz) and α-tubulin (TU-02, Santa Cruz) followed by the incubation with horseradish peroxidase (HRP)-conjugated anti-mouse or anti-rabbit antibodies (Santa Cruz) and enhanced chemiluminescence (ECL, Amersham).

[6] = test system: N-terminal methionine processing of 14-3-3γ by hMetAP2; assay: N-terminal methionine processing of 14-3-3γ in HUVEC (Western blot); format: cell-based, human; conditions: 10 nM
Protocol: 14-3-3γ is known as a substrate of eukaryotic MetAPs and the inhibition of either isotype of MetAPs was reported to increase the N-terminal methionyl form of the protein.
Cells were lysed by adding 1 volume of 2× Laemmli buffer and were then boiled for 5 min. The samples were separated by SDS-PAGE and transferred to nitrocellulose membrane (Bio-Rad).

## CO[C@@H]1[C@H](OC(=O)NC(=O)CCl)CC[C@]2(CO2)[C@H]1[C@@]1(C)O[C@@H]1CC=C(C)C [TNP-470]
[1]; map1Δ
  growth of MetAP-1 deletion mutant (map1Δ): significantly inhibited
[1]; map2Δ
  growth of MetAP-2 deletion mutant: did not affect the growth
[1]; wild type
  growth of wild-type yeast: did not inhibit the yeast growth
HUVEC [2]; 72 h, valproic acid 0.1 mM, TNP-470 20 nM
  premature senescence in HUVEC: did not induce premature senescence
HUVEC [2]; 5 days, single compound or drug combination
  premature senescence in HUVEC: did not
[3]
  endothelial selectivity over other types of cancer cell lines: around 1,000 fold
HUVEC [4]
  HUVEC tube formation: did not inhibit tube formation
[5]; 8% SDS-PAGE
  Rb hyperphosphorylation: inhibited its hyperphosphorylation
[5]; 12% SDS-PAGE
  total amount of Rb protein: increased the total amount of Rb protein
[6]
  processing of 14-3-3γ by hMetAP2: completely blocked
